Consider 23 compounds from patent US7608619B2, “Substituted oxazole compounds with analgesic activity” (Gruenenthal GmbH, priority 2005, dated 2009).

What is called inhibition is the relative decrease from the control value, in per cent.

T1 sequence (P35372 whole entry): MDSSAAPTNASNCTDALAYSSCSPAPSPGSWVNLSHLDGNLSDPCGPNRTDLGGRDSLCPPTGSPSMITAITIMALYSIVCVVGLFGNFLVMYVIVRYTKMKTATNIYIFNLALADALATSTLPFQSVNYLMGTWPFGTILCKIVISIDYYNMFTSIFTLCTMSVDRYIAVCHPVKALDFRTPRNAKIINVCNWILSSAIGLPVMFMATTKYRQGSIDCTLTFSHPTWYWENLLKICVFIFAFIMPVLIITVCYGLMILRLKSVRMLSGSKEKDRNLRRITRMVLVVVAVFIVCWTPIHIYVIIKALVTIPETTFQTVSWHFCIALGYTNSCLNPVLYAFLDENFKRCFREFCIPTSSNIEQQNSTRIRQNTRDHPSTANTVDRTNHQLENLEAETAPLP

The first experiment has as its target T1, human μ-opiate receptor (Homo sapiens, UniProt P35372).
T1 construct: purchased Nen company, Zaventem, Belgium RB-HOM; host or cells: CHO-K1 cells (membrane preparation)
Nature of the experiment: Affinity for the human μ-opiate receptor ([3H]-naloxone displacement, SPA, CHO-K1 membrane preparation). The settings on record: test substance 1 μmole/l; displacement of 1 nmole/l [3H]-naloxone; percentage inhibition of the specific binding. As for the experimental part: Method for Determining the Affinity for the Human μ-Opiate Receptor
The receptor affinity for the human μ-opiate receptor is determined in a homogeneous batch in microtiter plates. For this purpose dilution series of the substances to be tested are incubated for 90 minutes at room temperature with a receptor membrane preparation (15-40 μg protein/250 μl incubation batch) of CHO-K1 cells, which express the human μ-opiate receptor (RB-HOM receptor membrane preparation from the Nen company, Zaventem, Belgium), in the presence of 1 nmole/l of the radioactive ligand [^3H]-naloxone (NET719, Nen company, Zaventem, Belgium) and 1 mg WGA-SPA beads (wheat germ agglutinin SPA beads from Amersham/Pharmacia, Freiburg, Germany) in a total volume of 250 μl. 50 mmole/l of Tris-HCl supplemented with 0.05% sodium azide and with 0.06% bovine serum albumin is used as incubation buffer. In order to determine the non-specific binding, 25 μmole/l of naloxone is additionally added. After the end of the 90 minutes' incubation time the microtiter plates are centrifuged for 20 minutes at 1000 g and the radioactivity is measured in a beta counter (Microbeta-Trilux, PerkinElmer Wallac, Freiburg, Germany). The percentage displacement of the radioactive ligand from its binding to the human μ-opiate receptor at a concentration of the test substances of 1 μmole/l is determined and is given as percentage inhibition of the specific binding.
Consider `CN(CCc1ccccc1)c1oc(C(C2CCC(C(c3ccc(F)cc3)N(C)C)CC2)N(C)c2ccccc2)nc1Cc1ccccc1` (centres unmarked) [compound 38, {4-benzyl-2-[{4-[dimethylamino-(4-fluorophenyl)-methyl]-cyclohexyl}-(methylphenylamine)-methyl]-oxazol-5-yl}-methylphenethylamine], for which the “μ-opioid receptor, % inhibition [1 μM]” value was found to be 62%.

Still in this experiment, the particulars now being: test substance 1 μmole/l; displacement of 1 nmole/l [3H]-naloxone; percentage inhibition of the specific binding; read-out: μ-opioid receptor, % inhibition [1 μM].
Turning to `CCN(CC)C(c1nc(Cc2ccccc2)c(N2CCN(Cc3ccccc3)CC2)o1)C1CCC(C(c2cccs2)N(C)C)CC1` (centres unmarked) [compound 28, {[4-benzyl-5-(4-benzyl-piperazin-1-yl)-oxazol-2-yl]-[4-(dimethylamino-thiophen-2-yl-methyl)-cyclohexyl]-methyl}-diethylamine], the inhibition at 1 µM came out at 72%.
The same measure, in the same setting: to `CC1CCCN(c2oc(C(CC3CCC(C(c4ccc(F)cc4)N(C)C)CC3)N(C)c3ccccc3)nc2Cc2ccccc2)C1` (centres unmarked) [compound 105, (1-[4-benzyl-5-(3-methylpiperidin-1-yl)-oxazol-2-yl]-2-{4-[dimethylamino-(4-fluorophenyl)-methyl]-cyclohexyl}-ethyl)-methylphenylamine] belongs 71%.
As for `CCN(CC)C(CC1CCC(C(c2cccs2)N(C)C)CC1)c1nc(Cc2ccccc2)c(N2CCCC(C)C2)o1` (centres unmarked) [compound 116, {1-[4-benzyl-5-(3-methylpiperidin-1-yl)-oxazol-2-yl]-2-[4-(dimethylamino-thiophen-2-yl-methyl)-cyclohexyl]-ethyl}-diethylamine], the inhibition at 1 µM stood at 94%.
Consider `CN(C)C(c1ccc(Cl)cc1)C1CCC(CC(c2nc(Cc3ccccc3)c(N3CCSCC3)o2)N(C)c2ccccc2)CC1` (centres unmarked) [compound 92, (1-(4-benzyl-5-thiomorpholin-4-yl-oxazol-2-yl)-2-{4-[(4-chlorophenyl)-dimethylaminomethyl]-cyclohexyl}-ethyl)-methylphenylamine], for which the inhibition at 1 µM amounted to 87%.
Turning to `CN(C)C(c1cccs1)C1CCC(CC(c2nc(Cc3ccccc3)c(N3CCC(Cc4ccccc4)CC3)o2)N2CCCCC2)CC1` (centres unmarked) [compound 72, [(4-{2-[4-benzyl-5-(4-benzyl-piperidin-1-yl)-oxazol-2-yl]-2-piperidin-1-yl-ethyl}-cyclohexyl)-thiophen-2-yl-methyl]-dimethylamine], the inhibition at 1 µM amounted to 69%.
Still for that read-out and setting: to `COc1ccc(N2CCN(C(c3nc(Cc4ccccc4)c(N4CCCC4)o3)C3CCC(C(c4ccc(Cl)cc4)N(C)C)CC3)CC2)cc1` (centres unmarked) [compound 134, [(4-{(4-benzyl-5-pyrrolidin-1-yl-oxazol-2-yl)-[4-(4-methoxyphenyl)-piperazin-1-yl]-methyl}-cyclohexyl)-(4-chlorophenyl)-methyl]-dimethylamine] belongs 72%; to `CCN(CC)c1oc(C(C2CCC(C(c3ccc(F)cc3)N(C)C)CC2)N(CC)CC)nc1Cc1ccccc1` (centres unmarked) [compound 35, [4-benzyl-2-(diethylamino-{4-[dimethylamino-(4-fluorophenyl)-methyl]-cyclohexyl}-methyl)-oxazol-5-yl]-diethylamine], 61%; to `CN(CCc1ccccc1)c1oc(C(CC2CCC(C(c3ccc(F)cc3)N(C)C)CC2)N2CCCCC2)nc1Cc1ccccc1` (centres unmarked) [compound 95, [4-benzyl-2-(2-{4-[dimethylamino-(4-fluorophenyl)-methyl]-cyclohexyl}-1-piperidin-1-yl-ethyl)-oxazol-5-yl]-methylphenethylamine], 65%.
Take `COc1ccc(N2CCN(c3oc(C(C4CCC(C(c5cccc(F)c5)N(C)C)CC4)N4CCc5ccccc5C4)nc3Cc3ccccc3)CC2)cc1` (centres unmarked) [compound 127, [{4-[{4-benzyl-5-[4-(4-methoxy-phenyl)-piperazin-1-yl]-oxazol-2-yl}-(3,4-dihydro-1H-isoquinolin-2-yl)-methyl]-cyclohexyl}-(3-fluorophenyl)-methyl]-dimethylamine]: the inhibition at 1 µM stood at 73%.
The same measure, in the same setting: to `CN(C)C(c1ccc(F)cc1)C1CCC(C(c2nc(Cc3ccccc3)c(N3CCOCC3)o2)N(C)c2ccccc2)CC1` (centres unmarked) [compound 18, ((4-benzyl-5-morpholin-4-yl-oxazol-2-yl)-{4-[dimethylamino-(4-fluorophenyl)-methyl]-cyclohexyl}-methyl)-methylphenylamine] belongs 65%; to `CC1CCN(c2oc(C(CC3CCC(C(c4ccc(F)cc4)N(C)C)CC3)N3CCN(Cc4ccccc4)CC3)nc2Cc2ccccc2)CC1` (centres unmarked) [compound 71, [{4-[2-[4-benzyl-5-(4-methylpiperidin-1-yl)-oxazol-2-yl]-2-(4-benzyl-piperazin-1-yl)-ethyl]-cyclohexyl}-(4-fluorophenyl)-methyl]-dimethylamine], 67%.
Turning to `CC1CCCN(c2oc(C(CC3CCC(C(c4cccs4)N(C)C)CC3)N(C)c3ccccc3)nc2Cc2ccccc2)C1` (centres unmarked) [compound 117, {1-[4-benzyl-5-(3-methylpiperidin-1-yl)-oxazol-2-yl]-2-[4-(dimethylamino-thiophen-2-yl-methyl)-cyclohexyl]-ethyl}-methylphenylamine], the inhibition at 1 µM was 99%.
Turning to `CC1CCN(c2oc(C(CC3CCC(C(c4cccs4)N(C)C)CC3)N3CCN(Cc4ccccc4)CC3)nc2Cc2ccccc2)CC1` (centres unmarked) [compound 83, ({4-[2-[4-benzyl-5-(4-methylpiperidin-1-yl)-oxazol-2-yl]-2-(4-benzyl-piperazin-1-yl)-ethyl]-cyclohexyl}-thiophen-2-yl-methyl)-dimethylamine], the inhibition at 1 µM amounted to 97%.
The same measure, in the same setting: under `CN(C)C(c1cccc(F)c1)C1CCC(C(c2nc(Cc3ccccc3)c(N3CCCC3)o2)N2CCN(c3ccc(F)cc3)CC2)CC1` (centres unmarked) [compound 122, [(4-{(4-benzyl-5-pyrrolidin-1-yl-oxazol-2-yl)-[4-(4-fluorophenyl)-piperazin-1-yl]-methyl}-cyclohexyl)-(3-fluorophenyl)-methyl]-dimethylamine] stands 72%; under `CCN(CC)C(CC1CCC(C(c2ccc(F)cc2)N(C)C)CC1)c1nc(Cc2ccccc2)c(N2CCC(C)CC2)o1` (centres unmarked) [compound 69, (1-[4-benzyl-5-(4-methylpiperidin-1-yl)-oxazol-2-yl]-2-{4-[dimethylamino-(4-fluorophenyl)-methyl]-cyclohexyl}-ethyl)-diethylamine], 82%.
For `CCN(CC)c1oc(C(C2CCC(C(c3ccc(Cl)cc3)N(C)C)CC2)N2CCN(Cc3ccccc3)CC2)nc1Cc1ccccc1` (centres unmarked) [compound 44, [4-benzyl-2-((4-benzylpiperazin-1-yl)-{4-[(4-chlorophenyl)-dimethylaminomethyl]-cyclohexyl}-methyl)-oxazol-5-yl]-diethylamine], the inhibition at 1 µM amounted to 67%.
Turning to `CC1CCN(c2oc(C(C3CCC(C(c4ccc(F)cc4)N(C)C)CC3)N(C)c3ccccc3)nc2Cc2ccccc2)CC1` (centres unmarked) [compound 19, ([4-benzyl-5-(4-methylpiperidin-1-yl)-oxazol-2-yl]-{4-[dimethylamino-(4-fluorophenyl)-methyl]-cyclohexyl}-methyl)-methylphenylamine], the inhibition at 1 µM turned out to be 63%.
For `COc1ccc(N2CCN(c3oc(C(CC4CCC(C(c5cccc(F)c5)N(C)C)CC4)N4CCN(c5ccc(OC)cc5)CC4)nc3Cc3ccccc3)CC2)cc1` (centres unmarked) [compound 155, [(4-{2-{4-benzyl-5-[4-(4-methoxyphenyl)-piperazin-1-yl]-oxazol-2-yl}-2-[4-(4-methoxyphenyl)-piperazin-1-yl]-ethyl}-cyclohexyl)-(3-fluorophenyl)-methyl]-dimethylamine], the inhibition at 1 µM was 82%.
On to `CN(C)C(c1cccs1)C1CCC(CC(c2nc(Cc3ccccc3)c(N3CCN(Cc4ccccc4)CC3)o2)N2CCCCC2)CC1` (centres unmarked) [compound 73, [(4-{2-[4-benzyl-5-(4-benzyl-piperazin-1-yl)-oxazol-2-yl]-2-piperidin-1-yl-ethyl}-cyclohexyl)-thiophen-2-yl-methyl]-dimethylamine], for which the inhibition at 1 µM worked out at 94%.
As for `CC1CN(c2oc(C(CC3CCC(C(c4cccc(F)c4)N(C)C)CC3)N3CCOCC3)nc2Cc2ccccc2)CC(C)O1` (centres unmarked) [compound 152, [(4-{2-[4-benzyl-5-(2,6-dimethylmorpholin-4-yl)-oxazol-2-yl]-2-morpholin-4-yl-ethyl}-cyclohexyl)-(3-fluorophenyl)-methyl]-dimethylamine], the inhibition at 1 µM was 65%.
On the same count and under the same terms, under `COc1ccc(N2CCN(C(c3nc(Cc4ccccc4)c(N4CCOCC4)o3)C3CCC(C(c4cccc(F)c4)N(C)C)CC3)CC2)cc1` (centres unmarked) [compound 124, [(4-{(4-benzyl-5-morpholin-4-yl-oxazol-2-yl)-[4-(4-methoxyphenyl)-piperazin-1-yl]-methyl}-cyclohexyl)-(3-fluorophenyl)-methyl]-dimethylamine] stands 60%.
Consider `CN(C)C(c1cccc(F)c1)C1CCC(CC(c2nc(Cc3ccccc3)c(N3CCOCC3)o2)N2CCOCC2)CC1` (centres unmarked) [compound 150, [{4-[2-(4-benzyl-5-morpholin-4-yl-oxazol-2-yl)-2-morpholin-4-yl-ethyl]-cyclohexyl}-(3-fluorophenyl)-methyl]-dimethylamine], for which the inhibition at 1 µM is 75%.
